Patent US20040266766A1, “Selective urokinase inhibitors” (Wilex AG, priority 2001, published 2004)
Structures can show the parent of a compound that is named as a salt. Where two headings read alike, the source gives them in different places.

Key:
urokinase (uPA) = molecular target: T1, urokinase (uPA) (Homo sapiens, UniProt P00749); test: In vitro inhibition of urokinase (Ki according to Dixon, chromogenic substrate); type: biochemical
T1 construct: purchased Calbiochem-Novabiochem GmbH, Bad Soden, Germany
Procedure: (§1) In order to determine the inhibitory activity, 200 μl Tris buffer (0.05 mol/l containing the inhibitor, 0.154 mol/l NaCl, pH 8.0), 25 μl substrate (Pefachrome uPA, Pefachrome PL or Pefabloc TH in H2O; Pentapharm Ltd, Basle, Switzerland) and 50 μl urokinase (Calbiochem-Novabiochem GmbH, Bad Soden, Germany) or another appropriate protease e.g. plasmin, thrombin or FXa are incubated for 10 minutes at 30° C. After ca. 30 minutes and 30 cycles the absorption is determined at 405 nm by means of a microplate reader (Mediators PHL, Aureon Biosystems, Vienna, Austria). The Ki values were determined according to Dixon by linear regression using a computer program.

Plasmin = Plasmin (Homo sapiens, UniProt P00747); test: In vitro inhibition of plasmin (Ki according to Dixon); type: biochemical
Procedure: as §1

Thrombin = Thrombin (Homo sapiens, UniProt P00734); test: In vitro inhibition of thrombin (Ki according to Dixon); type: biochemical
Procedure: as §1

FXa = FXa (Homo sapiens, UniProt P00742); test: In vitro inhibition of FXa (Ki according to Dixon); type: biochemical
Procedure: as §1

PK = PK (Homo sapiens, UniProt P03952); test: In vitro inhibition of PK (Ki); type: biochemical; conditions: summary table
Procedure: as §1

Caco-2 cell monolayers = test: Caco-assay: transport across Caco-2 cell monolayers; type: in vitro ADME, human; conditions: for % amount in the basolateral compartment: 10 μg/ml apical, four hours
Procedure: Transport of the compounds WX-508, WXC-316, WXC-318, WXC-324, WXC-340, WX-532, WX-538, WX-550 and WX-582 across Caco-2 cell monolayers was investigated. In this experiment the bioavailability of the said compounds after oral administration was assessed.
Caco-2-cells (American Type Culture Collection, Rockville, Md., USA) were cultured in Dulbecco's modified Eagle medium (DMEM) (Life Technologies, Gibco BRL, UK) containing 10% vol/vol heat-denatured foetal calf serum (FCS), 1% vol/vol non-essential amino acids, 160 U/ml benzylpenicillin and 100 U/ml streptomycin (Sigma Chemical, St. Louis, Mo., USA). The cells are kept at 37° C. in an atmosphere comprising 95% air and 5% CO2 at 90% relative air humidity. The cells are cultured in […] culture flasks, the medium being replaced every second day and the cells are trypsinized once per week.
For the transport investigations the Caco-2 cells are cultured on porous polycarbonate filter membranes having a pore size of 0.4 μm and a surface of 4.7 cm^2 in clusters of 6 wells (Costar Transwell, Badhoevedorp, Netherlands). The cells are inoculated on each filter at an initial density of 10^4 cells/cm^2. These cells are kept at 37° C. in one of the atmospheres described above. The medium is replaced every second day for a period of three weeks.
On the day of the transport experiment the culture medium was replaced by the same volume of Hank's balanced saline solution (HBSS) buffered with 30 mM HEPES at pH 7.2 (transport medium) and the cells are allowed to equilibrate for 1 hour. Afterwards the apical medium is replaced by 1.5 ml of a solution containing one of the compounds in HBSS/HEPES (10 μg/ml). Cell monolayers are incubated for four hours. Samples of the apical and basolateral compartments are removed at the end of the experiments and used to quantitatively determine the transport of the respective compounds.
The transepithelial electric resistance (TEER) is measured before and after equilibration using a Milicell ERS meter which was connected to a pair of electrodes in order to ensure the integrity of the monolayers formed on the filters. TEER is also measured at the end of the experiments to ensure that the cell monolayer remains coherent.
Samples are taken from the apical and the basolateral side and analysed in a beta counter after adding a scintillation cocktail. All experiments were carried out three times.

[1] = Oral bioavailability and plasma kinetics in mice (serum concentration); type: in vivo, Balb/c mice; conditions: mouse; for concentration at 20 min / concentration at 40 min / concentration at 60 min: female, Balb/c, serum, po; for concentration at 20 min: sample at 20 minutes; for concentration at 40 min: sample at 40 minutes; for concentration at 60 min: sample at 60 minutes; for c in the serum 1st analysis / c in the serum 2nd analysis: 10 mg/kg i.v.
mammary carcinoma BN-472 = test: Tumor spreading, tumor growth and metastasizing in a rat breast cancer model; type: in vivo, brown Norwegian rats; conditions: 0.3 mg/kg daily subcutaneously, 4 weeks
Procedure: 10-25 mm^3 of transplantable metastasising mammary carcinoma BN-472 breast cancer tumor fragments from donor rats were transplanted orthotopically under the mammary fat pad. (Day 0) into 6 to 8 weeks old female brown Norwegian rats. Subcutaneous treatment was started 5 days after tumor inoculation. Each group consisted of 18 animals. The treatment group received a daily dose of 0.3 mg/kg body weight subcutaneously. The treatment-was carried out over a period of 4 weeks.
The dimensions of the subcutaneous tumors and the weight of the animals were determined weekly. At the end of the treatment the animals were sacrificed and tumor weights, organ weights and the number of metastases in relevant tissues were determined.
The data were analyzed using the SigmaStat Vers.2.03 statistical package. Tumor sizes, tumor weights and the weights of the organs were checked with the Shapiro-Wilk W-test for normality of distribution (Royston P., Approximating the Shapiro-Wilk W-test for non-normality. Statistics and Computing 1992, 2:117-119). For each parameter the Shapiro-Wilk W-tests were performed on all data (e.g., tumor weights of all rats), and separately for each treatment group. If one of the P-values was <0.05 the variable was considered to be abnormally distributed and the Mann-Whitney U-test was used to test for significance levels of differences. The Mann-Whitney U-test was used to test for differences in weights of the axillary lymph nodes, intra peritoneal lymph nodes, tumor, and the number of lung foci. Primary and metastatic tumor data at the end of the treatment period were graphically represented using the Box-Whisker graphs, with the box showing the inter-quartile range of values, with a horizontal line at the median value. Whiskers represent the 5th and 95th percentile of values, and the individual values are indicated by dots. The unadjusted level for statistical significance was α=0.05. All tests were two-sided.

[2] = list of test substances of Example 17, read-out: Ki human uPA
[3] = summary table, read-out: Ki uPA
[4] = 30 mg/kg, 30 mg/kg oral, read-out: c in the serum 1st analysis
[5] = 30 mg/kg, 30 mg/kg oral, read-out: c in the serum 2nd analysis
[6] = 300 mg/kg, 300 mg/kg oral, read-out: c in the serum 1st analysis
[7] = 300 mg/kg, 300 mg/kg oral, read-out: c in the serum 2nd analysis

PK, sequence (P03952 20-638): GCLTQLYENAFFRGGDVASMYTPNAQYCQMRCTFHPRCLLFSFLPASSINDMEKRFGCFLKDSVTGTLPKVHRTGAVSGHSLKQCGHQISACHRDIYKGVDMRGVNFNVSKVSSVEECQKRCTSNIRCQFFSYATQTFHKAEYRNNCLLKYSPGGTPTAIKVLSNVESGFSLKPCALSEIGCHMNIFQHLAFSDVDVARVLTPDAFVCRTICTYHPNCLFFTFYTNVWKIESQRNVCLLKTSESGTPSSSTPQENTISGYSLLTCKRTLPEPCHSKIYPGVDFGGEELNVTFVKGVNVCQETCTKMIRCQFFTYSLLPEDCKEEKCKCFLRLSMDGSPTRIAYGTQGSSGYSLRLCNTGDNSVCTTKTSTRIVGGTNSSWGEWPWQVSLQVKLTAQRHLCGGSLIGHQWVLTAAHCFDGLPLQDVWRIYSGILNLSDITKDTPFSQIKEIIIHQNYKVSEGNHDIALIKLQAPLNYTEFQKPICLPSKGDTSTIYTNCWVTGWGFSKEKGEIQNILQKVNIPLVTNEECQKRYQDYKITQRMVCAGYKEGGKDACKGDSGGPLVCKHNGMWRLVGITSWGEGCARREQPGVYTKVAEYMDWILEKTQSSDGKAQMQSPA
FXa, sequence (P00742 235-488 limits assumed): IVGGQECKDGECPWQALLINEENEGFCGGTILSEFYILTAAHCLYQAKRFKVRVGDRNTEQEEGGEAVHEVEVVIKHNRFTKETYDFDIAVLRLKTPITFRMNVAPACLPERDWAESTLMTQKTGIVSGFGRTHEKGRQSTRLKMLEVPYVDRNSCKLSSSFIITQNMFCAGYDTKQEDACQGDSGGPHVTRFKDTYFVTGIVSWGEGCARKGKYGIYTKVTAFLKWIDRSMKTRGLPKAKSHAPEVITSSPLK
FXa, sequence (P00742 41-179 partner limits assumed): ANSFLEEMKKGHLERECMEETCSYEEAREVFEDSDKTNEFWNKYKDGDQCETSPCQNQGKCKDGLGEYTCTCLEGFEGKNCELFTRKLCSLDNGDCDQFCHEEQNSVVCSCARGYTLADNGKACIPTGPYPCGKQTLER
Plasmin, sequence (P00747 581-810 limits assumed, species assumed): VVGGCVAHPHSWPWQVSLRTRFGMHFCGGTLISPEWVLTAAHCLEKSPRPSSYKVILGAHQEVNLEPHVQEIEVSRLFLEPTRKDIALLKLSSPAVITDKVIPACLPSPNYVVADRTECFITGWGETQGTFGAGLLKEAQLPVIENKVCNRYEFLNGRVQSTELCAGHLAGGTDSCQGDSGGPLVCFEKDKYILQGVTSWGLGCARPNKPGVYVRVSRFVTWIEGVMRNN
Plasmin, sequence (P00747 97-580 partner limits assumed, species assumed): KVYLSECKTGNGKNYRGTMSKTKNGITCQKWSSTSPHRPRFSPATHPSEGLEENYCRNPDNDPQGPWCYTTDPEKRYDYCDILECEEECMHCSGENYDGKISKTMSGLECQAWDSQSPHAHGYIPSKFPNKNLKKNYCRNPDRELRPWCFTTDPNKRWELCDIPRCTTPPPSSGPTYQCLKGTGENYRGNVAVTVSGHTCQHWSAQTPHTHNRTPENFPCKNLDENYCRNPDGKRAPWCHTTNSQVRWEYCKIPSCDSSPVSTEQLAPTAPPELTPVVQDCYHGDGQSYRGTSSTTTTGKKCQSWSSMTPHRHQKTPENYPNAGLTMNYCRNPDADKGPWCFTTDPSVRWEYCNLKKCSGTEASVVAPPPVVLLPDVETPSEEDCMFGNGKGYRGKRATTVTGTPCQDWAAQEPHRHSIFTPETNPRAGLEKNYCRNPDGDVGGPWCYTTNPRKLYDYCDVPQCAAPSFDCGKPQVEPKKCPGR

Ki (urokinase (uPA); [2])	Ki (urokinase (uPA); read-out: Ki uPA)	Ki (urokinase (uPA); [3])	Ki Plasmin (Plasmin)	Ki Plasmin (Plasmin; summary table)	Ki Thrombin (Thrombin)	Ki Thrombin (Thrombin; summary table)	Ki (FXa)	Ki (PK)	% amount in the basolateral compartment (Caco-2 cell monolayers; first value column)	% amount in the basolateral compartment (Caco-2 cell monolayers; second value column)	% amount in the basolateral compartment (Caco-2 cell monolayers; third value column)	Caco-2 assay % basolateral (Caco-2 cell monolayers; first series, first value)	Caco-2 assay % basolateral (Caco-2 cell monolayers; first series, second value)	Caco-2 assay % basolateral (Caco-2 cell monolayers; first series, third value)	Caco-2 assay % basolateral (Caco-2 cell monolayers; second series, first value)	Caco-2 assay % basolateral (Caco-2 cell monolayers; second series, second value)	Caco-2 assay % basolateral (Caco-2 cell monolayers; second series, third value)	concentration at 20 min [1, 4]	concentration at 20 min [1, 5]	SMILES	also measured
0.09 µM	0.09 µM	0.09 µM	no inh. at 100 μM *)	no inh. at 100 μM *)	no inh. at 100 μM *)	no inh. at 100 μM *)	32.4 µM	875 µM	0.2%	0.2%	3.6%	0.2%	0.2%	3.4%	0.1%	0.1%	3.6%	0.5 µg/mL	0.6 µg/mL	N=C(N)Nc1ccc(CNC(=O)CNC(=O)C(CO)NS(=O)(=O)Cc2cccc([N+](=O)[O-])c2)cc1 (stereo not drawn) [WX-C316, 3-Nitrobenzyl-sulfonyl-(D)-Ser-Gly-(4-guanidinobenzyl)amide hydrochloride]	concentration at 40 min [1, 4]: 5.9 µg/mL; concentration at 40 min [1, 5]: 7.1 µg/mL; concentration at 60 min [1, 4]: 0.4 µg/mL; concentration at 60 min [1, 5]: 0.5 µg/mL; concentration at 20 min [1, 6]: 6 µg/mL; concentration at 20 min [1, 7]: 7.2 µg/mL; concentration at 40 min [1, 6]: 21.8 µg/mL; concentration at 40 min [1, 7]: 32.1 µg/mL; concentration at 60 min [1, 6]: 5.3 µg/mL; concentration at 60 min [1, 7]: 5.8 µg/mL; c in the serum 1st analysis ([1]; time of sample collection 0): 45.4 µg/mL; c in the serum 2nd analysis ([1]; time of sample collection 0): 67.5 µg/mL; c in the serum 1st analysis ([1]; time of sample collection 10): 12.4 µg/mL; c in the serum 2nd analysis ([1]; time of sample collection 10): 14.3 µg/mL; c in the serum 1st analysis ([1]; time of sample collection 30): 2.7 µg/mL; c in the serum 2nd analysis ([1]; time of sample collection 30): 2.6 µg/mL
0.047 µM	0.047 µM	0.047 µM	no inh. at 100 μM *)	no inh. at 100 μM *)	no inh. at 100 μM *)	no inh. at 100 μM *)	36 µM	176 µM	0.4%	1.0%	4.5%	0.4%	1.0%	4.5%	0.2%	0.6%	7.0%	0.1 µg/mL	0.2 µg/mL	N=C(N)Nc1ccc(CNC(=O)CNC(=O)C(CO)NS(=O)(=O)Cc2cccc(Cl)c2)cc1 (stereo not drawn) [WX-C318, 3-Chlorobenzyl-sulfonyl-(D)-Ser-Gly-(4-guanidinobenzyl)amide hydrochloride]	concentration at 40 min [1, 5]: 0.05 µg/mL; concentration at 60 min [1, 4]: 0.2 µg/mL; concentration at 60 min [1, 5]: 0.2 µg/mL; concentration at 20 min [1, 6]: 100 µg/mL; concentration at 20 min [1, 7]: 82.6 µg/mL; concentration at 40 min [1, 6]: 5.4 µg/mL; concentration at 40 min [1, 7]: 6.2 µg/mL; concentration at 60 min [1, 6]: 7.5 µg/mL; concentration at 60 min [1, 7]: 7.7 µg/mL; c in the serum 2nd analysis ([1]; time of sample collection 0): 48.4 µg/mL; c in the serum 1st analysis ([1]; time of sample collection 10): 4.3 µg/mL; c in the serum 2nd analysis ([1]; time of sample collection 10): 5.5 µg/mL; c in the serum 1st analysis ([1]; time of sample collection 30): 0.7 µg/mL; c in the serum 2nd analysis ([1]; time of sample collection 30): 1.4 µg/mL
0.01 µM	0.01 µM	0.01 µM	no inh. at 100 μM *)	no inh. at 100 μM *)	no inh. at 100 μM *)	no inh. at 100 μM *)	34 µM	216 µM	2.4%	0.2%	0.1%	2.4%	0.2%	0.1%	2.3%	0.1%	0.1%	0.3 µg/mL	0.5 µg/mL	N=C(N)Nc1ccc(CNC(=O)CNC(=O)C(CO)NS(=O)(=O)Cc2ccc(Cl)cc2)cc1 (stereo not drawn) [WX-C340, 4-Chlorobenzyl-sulfonyl-(D)-Ser-Gly-(4-guanidinobenzyl)amide hydrochloride]	concentration at 40 min [1, 4]: 0.3 µg/mL; concentration at 40 min [1, 5]: 0.8 µg/mL; concentration at 60 min [1, 4]: 1.4 µg/mL; concentration at 60 min [1, 5]: 2.3 µg/mL; concentration at 20 min [1, 6]: 4.5 µg/mL; concentration at 40 min [1, 6]: 4.9 µg/mL; concentration at 60 min [1, 6]: 4.3 µg/mL; c in the serum 1st analysis ([1]; time of sample collection 0): 51.8 µg/mL; c in the serum 1st analysis ([1]; time of sample collection 10): 5.3 µg/mL; c in the serum 1st analysis ([1]; time of sample collection 30): 1.7 µg/mL; reduction of the axillary lymph node weights (mammary carcinoma BN-472; compared with the control group, P=0.006): 73%; reduction in the number of lung foci (mammary carcinoma BN-472; compared with the control group, P≦0.001): 63%; reduction of the median tumor weight (mammary carcinoma BN-472; P=0.141): 29%
